Converted amounts (≈) assume the structure as drawn. The source made the active and inactive calls. No cut-off for these calls is given here.
Assays:
[1] = Half life in Sprague-Dawley rat at 20 mg/kg, po by LC-MS/MS analysis; assay type: ADME, organism-based; details: in vivo
CAPAN-1 [2] = assay: Cell cycle arrest in human Capan1 cells assessed as accumulation at G2/M phase at 0.1 uM after 72 hrs by propidium iodide-staining based flow cytometry (reference value: 15.26%); assay type: functional
[3] = Volume of distribution in Sprague-Dawley rat at 10 mg/kg, iv by LC-MS/MS analysis; assay type: ADME, organism-based; details: in vivo
CAPAN-1 [4] = assay: Cell cycle arrest in human Capan1 cells assessed as accumulation at G2/M phase at 1 uM after 72 hrs by propidium iodide-staining based flow cytometry (reference value: 15.26%); assay type: functional
[5] = Cytotoxicity against BRCA2 deficient Chinese hamster VC8 cells after 3 days by CCK8 or SRB assay; assay type: functional, cell-based; details: Cricetulus griseus, V-C8, 72 h
[6] = Solubility of the compound in water after 24 hrs by HPLC analysis; assay type: physicochemical
[7] = Cmax in Sprague-Dawley rat at 10 mg/kg, iv by LC-MS/MS analysis; assay type: ADME, organism-based; design: dose 10 mg/kg, route intravenous; details: in vivo
CAPAN-1 [8] = assay: Cell cycle arrest in human Capan1 cells assessed as accumulation at G0/G1 phase at 1 uM after 72 hrs by propidium iodide-staining based flow cytometry (reference value: 63.33%); assay type: functional
V79 = assay: Cytotoxicity against BRCA2 expressing Chinese hamster V79 cells after 3 days by CCK8 or SRB assay; assay type: cell-based; details: Cricetulus griseus, V79, 72 h
[9] = AUC in Sprague-Dawley rat at 10 mg/kg, iv by LC-MS/MS analysis; assay type: ADME, organism-based; details: in vivo
MDA-MB-436 [10] = assay: Induction of apoptosis in human MDA-MB-436 cells assessed as early apoptotic cells at 0.1 uM after 96 hrs in presence of pancaspase inhibitor Z-VAD-FMK by Annexin V-FITC/propidium iodide double-staining based flow cytometery (reference value: 2.32%); assay type: functional
MDA-MB-436 [11] = assay: Antitumor activity against human MDA-MB-436 cells harboring BRCA1 mutant xenografted in nude BALB/cA mouse assessed as tumor growth inhibition at 100 mg/kg, po administered once daily for 21 consecutive days measured twice per week; assay type: functional; details: MDA-MB-436, po, read-out: TGI
[12] = Oral bioavailability in Sprague-Dawley rat at 20 mg/kg by LC-MS/MS analysis; assay type: ADME, organism-based; details: in vivo
MDA-MB-436 [13] = assay: Antiproliferative activity against human MDA-MB-436 cells after 7 days by CCK8 or SRB assay; assay type: functional, cell-based; details: MDA-MB-436, 168 h
MDA-MB-436 [14] = assay: Induction of apoptosis in human MDA-MB-436 cells assessed as late apoptotic cells at 1 uM after 96 hrs by Annexin V-FITC/propidium iodide double-staining based flow cytometery (reference value: 5.61%); assay type: functional
[15] = Cmax in Sprague-Dawley rat at 20 mg/kg, po by LC-MS/MS analysis; assay type: ADME, organism-based; design: dose 20 mg/kg, route oral; details: in vivo
[16] = AUC in Sprague-Dawley rat at 20 mg/kg, po by LC-MS/MS analysis; assay type: ADME, organism-based; details: in vivo
MDA-MB-436 [17] = assay: Induction of apoptosis in human MDA-MB-436 cells assessed as late apoptotic cells at 0.1 uM after 96 hrs by Annexin V-FITC/propidium iodide double-staining based flow cytometery (reference value: 5.61%); assay type: functional
MDA-MB-436 [18] = assay: Induction of apoptosis in human MDA-MB-436 cells assessed as early apoptotic cells at 1 uM after 96 hrs by Annexin V-FITC/propidium iodide double-staining based flow cytometery (reference value: 1.90%); assay type: functional
CAPAN-1 [19] = assay: Cell cycle arrest in human Capan1 cells assessed as accumulation at S phase at 0.1 uM after 72 hrs by propidium iodide-staining based flow cytometry (reference value: 21.42%); assay type: functional
[20] = Half life in Sprague-Dawley rat at 10 mg/kg, iv by LC-MS/MS analysis; assay type: ADME, organism-based; details: in vivo
MDA-MB-436 [21] = assay: Induction of apoptosis in human MDA-MB-436 cells assessed as early apoptotic cells at 1 uM after 96 hrs in presence of pancaspase inhibitor Z-VAD-FMK by Annexin V-FITC/propidium iodide double-staining based flow cytometery (reference value: 2.32%); assay type: functional
MDA-MB-436 [22] = assay: Induction of apoptosis in human MDA-MB-436 cells assessed as late apoptotic cells at 0.1 uM after 96 hrs in presence of pancaspase inhibitor Z-VAD-FMK by Annexin V-FITC/propidium iodide double-staining based flow cytometery (reference value: 5.11%); assay type: functional
CAPAN-1 [23] = assay: Cell cycle arrest in human Capan1 cells assessed as accumulation at G0/G1 phase at 0.1 uM after 72 hrs by propidium iodide-staining based flow cytometry (reference value: 63.33%); assay type: functional
MDA-MB-436 [24] = assay: Induction of apoptosis in human MDA-MB-436 cells assessed as late apoptotic cells at 1 uM after 96 hrs in presence of pancaspase inhibitor Z-VAD-FMK by Annexin V-FITC/propidium iodide double-staining based flow cytometery (reference value: 5.11%); assay type: functional
MDA-MB-436 [25] = assay: Induction of apoptosis in human MDA-MB-436 cells assessed as early apoptotic cells at 0.1 uM after 96 hrs by Annexin V-FITC/propidium iodide double-staining based flow cytometery (reference value: 1.90%); assay type: functional
CAPAN-1 [26] = assay: Cell cycle arrest in human Capan1 cells assessed as accumulation at S phase at 1 uM after 72 hrs by propidium iodide-staining based flow cytometry (reference value: 21.42%); assay type: functional
CAPAN-1 [27] = assay: Antiproliferative activity against human Capan1 cells after 7 days by CCK8 or SRB assay; assay type: functional, cell-based; details: CAPAN-1, 168 h
[28] = Clearance in Sprague-Dawley rat at 10 mg/kg, iv by LC-MS/MS analysis; assay type: ADME, organism-based; details: in vivo
MDA-MB-436 [29] = assay: Induction of apoptosis in human MDA-MB-436 cells assessed as caspase-3/7 activation at 0.1 to 1 uM after 72 hrs by Caspase-Glo 3/7 assay; assay type: functional, cell-based
[30] = Half life in Sprague-Dawley rat at 1 mg/kg, iv by LC-MS/MS analysis; assay type: ADME, organism-based; details: in vivo
Mus musculus [31] = assay: Toxicity in nude BALB/cA mouse xenografted with human Capan1 cells harboring BRCA2 mutant assessed as weight loss at 0.5 mg/kg, po administered once daily for 21 consecutive days measured twice per week; assay type: organism-based; details: in vivo
[32] = Apparent permeability across basolateral to apical side in human Caco2 cells assessed as drug recovery at 18593.3 pmol after 2 hrs by LC-MS/MS analysis; assay type: ADME, cell-based; details: Caco-2, read-out: Drug recovery
[33] = Oral bioavailability in Sprague-Dawley rat at 2 mg/kg by LC-MS/MS analysis; assay type: ADME, organism-based; details: in vivo
[34] = AUC in Sprague-Dawley rat at 1 mg/kg, iv by LC-MS/MS analysis; assay type: ADME, organism-based; details: in vivo
[35] = Protein binding in mouse plasma at 0.5 to 50 uM after 4 hrs by LC-MS/MS analysis; assay type: ADME, cell-free; details: read-out: PPB (converted)
[36] = Stability in mouse plasma at 1 uM up to 60 mins by LC-MS/MS analysis; assay type: ADME, cell-free; details: read-out: Stability
[37] = Cmax in Sprague-Dawley rat at 1 mg/kg, iv by LC-MS/MS analysis; assay type: ADME, organism-based; design: dose 1 mg/kg, route intravenous; details: in vivo
[38] = Elimination half-life in mouse liver microsomes at 2 uM up to 60 mins by LC-MS/MS analysis; assay type: ADME, microsome; details: read-out: beta t1/2
Mus musculus [39] = assay: Toxicity in nude BALB/cA mouse xenografted with human Capan1 cells harboring BRCA2 mutant assessed as mortality at 0.5 mg/kg, po administered once daily for 21 consecutive days measured twice per week; assay type: organism-based; details: in vivo
[40] = Cmax in Sprague-Dawley rat at 2 mg/kg, po by LC-MS/MS analysis; assay type: ADME, organism-based; design: dose 2 mg/kg, route oral; details: in vivo
CAPAN-1 [41] = assay: Antitumor activity against human Capan1 cells harboring BRCA2 mutant xenografted in nude BALB/cA mouse assessed as tumor growth inhibition at 0.5 mg/kg, po administered once daily for 21 consecutive days measured twice per week; assay type: functional; details: CAPAN-1, po, read-out: TGI
Rattus norvegicus = assay: Half life in Sprague-Dawley rat at 2 mg/kg, po by LC-MS/MS analysis; assay type: ADME, organism-based; details: in vivo
[42] = Apparent permeability across apical to basolateral side in human Caco2 cells assessed as drug recovery at 5631.3 pmol after 2 hrs by LC-MS/MS analysis; assay type: ADME, cell-based; details: Caco-2, read-out: Drug recovery
[43] = Clearance in Sprague-Dawley rat at 1 mg/kg, iv by LC-MS/MS analysis; assay type: ADME, organism-based; details: in vivo
[44] = Apparent permeability across apical to basolateral side in human Caco2 cells after 2 hrs by LC-MS/MS analysis; assay type: ADME, cell-based; details: Caco-2
[45] = AUC in Sprague-Dawley rat at 2 mg/kg, po by LC-MS/MS analysis; assay type: ADME, organism-based; details: in vivo
[46] = Volume of distribution in Sprague-Dawley rat at 1 mg/kg, iv by LC-MS/MS analysis; assay type: ADME, organism-based; details: in vivo
[47] = Apparent permeability across basolateral to apical side in human Caco2 cells after 2 hrs by LC-MS/MS analysis; assay type: ADME, cell-based; details: Caco-2

O=C(c1cc(Cc2n[nH]c(=O)c3ccccc23)ccc1F)N1CCN(C(=O)C2CC2)CC1 [OLAPARIB]
half-life [1]: 1 h
Activity (CAPAN-1 [2]): 20.91%
Vd [3]: 3 L/kg
Activity (CAPAN-1 [4]): 51.54%
IC50 [5]: 566 nM
solubility at 24 h [6]: 104 µg/mL (≈ 239 µM)
Cmax [7]: 12300 ng/mL
Activity (CAPAN-1 [8]): 22.33%
IC50 (V79): 10000 to 54200 nM
AUC [9]: 5500 ng·h/mL
Activity (MDA-MB-436 [10]): 3.3%
inhibition in vivo at 100 mg/kg (MDA-MB-436 [11]): 65%
bioavailability [12]: 45.4%
IC50 (MDA-MB-436 [13]): 39.3 nM
Activity (MDA-MB-436 [14]): 17.75%
Cmax [15]: 2590 ng/mL
AUC [16]: 4990 ng·h/mL
Activity (MDA-MB-436 [17]): 9.78%
Activity (MDA-MB-436 [18]): 4.15%
Activity (CAPAN-1 [19]): 27.2%
half-life [20]: 1.1 h
Activity (MDA-MB-436 [21]): 4.79%
Activity (MDA-MB-436 [22]): 6.52%
Activity (CAPAN-1 [23]): 51.83%
Activity (MDA-MB-436 [24]): 9.97%
Activity (MDA-MB-436 [25]): 2.5%
Activity (CAPAN-1 [26]): 26.14%
IC50 (CAPAN-1 [27]): 399 nM
clearance [28]: 30 mL/min/kg
Activity (MDA-MB-436 [29]): Active

Cn1ncnc1[C@H]1c2n[nH]c(=O)c3cc(F)cc(c23)N[C@@H]1c1ccc(F)cc1 [TALAZOPARIB]
half-life [30]: 4.6 h
Activity (Mus musculus [31]): Toxic
IC50 [5]: 4.2 nM
recovery at 2 h [32]: 108%
bioavailability [33]: 104%
AUC [34]: 6540 ng·h/mL
fraction unbound at 4 h, up to 50 µM [35]: 0.057
IC50 (V79): 5010 nM
remaining at 1 h, 1 µM [36]: 106%
Cmax [37]: 2060 ng/mL
half-life at 2 µM [38]: > 1 h
Activity (Mus musculus [39]): Toxic
Cmax [40]: 3100 ng/mL
IC50 (MDA-MB-436 [13]): 0.7 nM
inhibition in vivo at 0.5 mg/kg (CAPAN-1 [41]): 80%
t1/2 (Rattus norvegicus): 3.4 h
recovery at 2 h [42]: 98.4%
clearance [43]: 3.33 mL/min/kg
Papp A→B at 2 h [44]: 0.9 ×10⁻⁶ cm/s
AUC [45]: 13200 ng·h/mL
IC50 (CAPAN-1 [27]): 1.8 nM
Vd [46]: 1.1 L/kg
Papp B→A at 2 h [47]: 51.8 ×10⁻⁶ cm/s
